Where a name gives a salt, the structure may show the parent alone. Read-outs that look alike come from different tables or passages of the source.
Assays:
[1] = system: nociceptive pain caused by thermal stimulation; conditions: cited from earlier work; for generation of morphine resistance: mouse, thermal stimulation, Non-Patent Documents 5 and 6
[2] = system: nociceptive pain triggered by formalin; conditions: cited from earlier work; for analgesic effect, sole use: Non-Patent Document 11
[3] = system: allodynia in B16-BL6 melanoma cancer pain model; experiment: cancer pain model (B16-BL6 melanoma transplanted into paw), von Frey pain threshold, single administration; type: in vivo, mouse; conditions: peroral single administration 100 mg/kg on day 14 after cancer transplantation; FIG. 1
Text: Then, the change in pain threshold was monitored. Compound (A1) was suspended in 0.5% CMC-Na solution before administration.

neuropathic pain = conditions: cited from earlier work
[4] = system: allodynia in B16-BL6 melanoma cancer pain model; experiment: cancer pain model (B16-BL6 melanoma), von Frey pain threshold, repeated administration; type: in vivo, mouse; conditions: 100 mg/kg orally once a day for eight days from day 7 after cancer transplantation; FIG. 2
Description: From day 7 after cancer transplantation, compound (A1) or L-365,260 (CCK2 receptor antagonist) (100 mg/kg) was orally administered once a day for eight days repeatedly, and the change in pain threshold was monitored. […] On day 7 after cancer transplantation, allodynia occurred, and a considerable drop in pain threshold occurred on day 14 after cancer transplantation.

[5] = system: nociceptive pain caused by thermal stimulation; conditions: Non-Patent Document 7, cited from earlier work
thermal hyperalgesia = conditions: Non-Patent Document 12; cited from earlier work
pancreatic cancer = conditions: Non-Patent Document 15, cited from earlier work
cancer pain = conditions: clinical, combination with morphine; Non-Patent Document 10; cited from earlier work

For `C[C@](Cc1c[nH]c2ccccc12)(NC(=O)OC1[C@H]2C[C@@H]3C[C@@H](C[C@H]1C3)C2)C(=O)NC[C@H](NC(=O)CCC(=O)O)c1ccccc1` (stereo partly drawn) [CI-988], the “generation of morphine resistance” value [1] is listed as “suppress generation of morphine resistance” and the “analgesic effect of morphine on nociceptive pain” value ([2]; combination with morphine, Non-Patent Document 8) is listed as “potentiates the analgesic effect of morphine”.
In the case of `Cc1cccc(NC(=O)N[C@@H]2N=C(c3ccccc3)c3ccccc3N(C)C2=O)c1` [L-365,260], the “change in pain threshold / improvement of allodynia” value [3] is given as “no effect on improvement of allodynia”, the “generation of morphine resistance” value [1] is given as “suppress generation of morphine resistance” and the “analgesic effect, single use” value ([1]; single use, Non-Patent Document 13) is given as “exhibits no analgesic effect”. The “analgesic effect of morphine on allodynia” value (neuropathic pain; combination with morphine, Non-Patent Document 9) was “potentiates the analgesic effect of morphine”, the “generation of morphine resistance” value (neuropathic pain; rat neuropathic pain model, Non-Patent Document 4) was “suppress generation of morphine resistance” and the “analgesic effect, single use” value (neuropathic pain; single use, Non-Patent Document 9) was “exhibits no analgesic effect”. For the same compound, the “change in pain threshold / improvement of allodynia” value [4] was “no effect on improvement of allodynia was observed”, the “analgesic effect, sole use” value [2] was “exhibits the analgesic effect” and the “analgesic effect of morphine on nociceptive pain” value ([5]; combination with morphine) was “potentiates the analgesic effect of morphine”. For the same compound, the “analgesic effect, single use” value ([5]; single use) was “exhibits no analgesic effect”.
For `Cc1cccc(NC(=O)N[C@@H]2N=C(c3ccccc3)c3ccccc3N(CC(=O)c3ccccc3C)C2=O)c1` [YM022], the “analgesic effect, sole use, on thermal hyperalgesia” value (thermal hyperalgesia) is given as “an analgesic effect”.
In the case of `Nc1ccn([C@@H]2O[C@H](CO)[C@@H](O)C2(F)F)c(=O)n1` [gemcitabine hydrochloride], the pain relief effect (pancreatic cancer; pancreatic cancer patients) is given as “excellent pain relief effect” and the tumor regression effect (pancreatic cancer; pancreatic cancer) is given as “comparatively weak tumor regression effect”.
For `CCCN(CCC)C(=O)C(CCC(=O)O)NC(=O)c1ccccc1` (stereo not drawn) [proglumide], the “change in pain threshold / improvement of allodynia” value [3] is given as “no effect on improvement of allodynia”, the “analgesic effect of morphine on cancer pain” value (cancer pain) is given as “potentiates the analgesic effect of morphine” and the “analgesic effect, sole use” value [2] is given as “exhibits the analgesic effect”.
